This passage reports IC50 results from BindingDB's records for doi:10.1016/j.cbi.2005.11.002 (Laboratoire De Pharmacologie-Toxicologie Inra, 2006).

In this assay the target is ATP-binding cassette sub-family C member 2 (Homo sapiens, UniProt Q92887). The experiment in a line: TP_TRANSPORTER: inhibition of ATPase activity in Sf9 cells (membrane vesicles).
Sequence of ATP-binding cassette sub-family C member 2 (Q92887 whole entry): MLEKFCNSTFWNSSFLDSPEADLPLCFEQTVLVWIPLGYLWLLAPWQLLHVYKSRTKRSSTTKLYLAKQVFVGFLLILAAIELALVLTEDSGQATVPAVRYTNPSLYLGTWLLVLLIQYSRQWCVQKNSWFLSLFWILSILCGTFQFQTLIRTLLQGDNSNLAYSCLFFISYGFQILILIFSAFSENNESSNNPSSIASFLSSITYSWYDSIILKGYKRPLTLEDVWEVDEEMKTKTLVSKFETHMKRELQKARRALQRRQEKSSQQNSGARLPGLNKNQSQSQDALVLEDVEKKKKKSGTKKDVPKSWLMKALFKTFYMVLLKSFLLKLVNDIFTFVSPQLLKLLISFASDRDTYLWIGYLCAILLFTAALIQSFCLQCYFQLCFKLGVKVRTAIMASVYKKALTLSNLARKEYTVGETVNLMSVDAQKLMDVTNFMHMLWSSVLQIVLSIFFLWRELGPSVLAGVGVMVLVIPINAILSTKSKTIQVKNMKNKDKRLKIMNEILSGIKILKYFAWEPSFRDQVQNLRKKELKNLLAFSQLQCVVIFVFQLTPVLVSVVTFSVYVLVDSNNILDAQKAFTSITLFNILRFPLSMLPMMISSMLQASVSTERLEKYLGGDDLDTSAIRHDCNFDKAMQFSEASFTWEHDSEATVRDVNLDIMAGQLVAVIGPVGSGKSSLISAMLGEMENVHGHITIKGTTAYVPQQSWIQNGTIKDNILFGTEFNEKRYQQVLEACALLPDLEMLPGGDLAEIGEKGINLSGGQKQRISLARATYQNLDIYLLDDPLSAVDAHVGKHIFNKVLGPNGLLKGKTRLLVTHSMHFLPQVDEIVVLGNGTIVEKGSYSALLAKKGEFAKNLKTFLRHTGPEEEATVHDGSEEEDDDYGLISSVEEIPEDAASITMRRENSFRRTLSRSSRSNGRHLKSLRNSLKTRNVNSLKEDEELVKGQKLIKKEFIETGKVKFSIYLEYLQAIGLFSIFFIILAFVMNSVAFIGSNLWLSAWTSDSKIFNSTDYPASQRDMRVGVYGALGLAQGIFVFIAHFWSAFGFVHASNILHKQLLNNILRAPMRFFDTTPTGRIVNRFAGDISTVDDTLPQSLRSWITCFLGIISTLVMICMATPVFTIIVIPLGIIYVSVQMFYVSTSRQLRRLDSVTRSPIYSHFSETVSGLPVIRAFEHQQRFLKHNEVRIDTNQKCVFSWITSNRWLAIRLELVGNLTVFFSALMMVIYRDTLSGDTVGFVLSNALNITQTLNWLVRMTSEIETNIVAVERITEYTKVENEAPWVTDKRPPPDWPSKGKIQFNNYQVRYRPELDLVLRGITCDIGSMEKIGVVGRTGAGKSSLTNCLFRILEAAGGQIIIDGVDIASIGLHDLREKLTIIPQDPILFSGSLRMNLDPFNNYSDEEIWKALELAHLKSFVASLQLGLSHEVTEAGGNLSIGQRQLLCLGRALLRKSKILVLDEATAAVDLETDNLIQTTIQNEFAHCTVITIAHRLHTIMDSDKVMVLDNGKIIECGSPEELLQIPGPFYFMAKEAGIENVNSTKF

In turn, `CC[C@H](C)[C@H]1O[C@]2(CC[C@@H]1C)C[C@@H]1C[C@@H](C/C=C(\C)[C@@H](O[C@H]3C[C@H](OC)[C@@H](O[C@H]4C[C@H](OC)[C@@H](O)[C@H](C)O4)[C@H](C)O3)[C@@H](C)/C=C/C=C3\CO[C@@H]4[C@H](O)C(C)=C[C@@H](C(=O)O1)[C@]34O)O2` [ABAMECTIN] gave an IC50 of 18 µM.

Usually IC50 stands for the concentration that inhibits the measured activity by half.
